The values below are quoted from earlier work in patent US5665379A, “Lipid particle forming matrix, preparation and use thereof” (priority 1990, dated 1997).

The structures appear in SMILES notation.

As to `CCCCCCCCCCCCCCCC(=O)OC(CC(=O)[O-])C[N+](C)(C)C` (stereo not shown) [palmitoylcarnitine], the “Absorption enhancement in the gut (in words)” value was “acts as an absorption enhancer”.
